The structures appear in SMILES notation. Counter-ions that a name gives are not always drawn. Marks after values point to notes of the source that are not given here.

This assay deals with E coli B44 (09:K90:K99). The assay is described as follows: Protection of neonatal mice from lethal enteropathogenic E coli infection. Type of assay: in vivo. Conditions: 4 day old mice orally infected; for % Protection by drug: mortality in drug group compared with placebo group. As to the method:
4 day old mice were orally dosed with 50pl of phosphate buffered saline containing 1 x 10^5 organisms/ml of E coli B44 (09:K90:K99) an enteropathogenic strain originally isolated from a scouring calf. The mice were then dosed b.i.d. with either placebo or drug for four days commencing 16 hours after infection. The animals were left with their mothers throughout the experiment and a daily record of deaths was made. The experiment was terminated when no mortality was seen over a 24 hour period. (Usually 7-10 days after infection). The mortality in the drug group was then compared with the mortality in the placebo group using the following formula:- [formula]
where Mp = mortality in group receiving placebo Md = mortality in group receiving drug
Statistical analysis was performed using 2 x 2 contingency tables (single tailed 'p').

The mark [1] stands for this setting: drug 10mg/kg b.i.d. for four days commencing 16 hours after infection.
Where [2] appears, read: drug 10mg/kg b.i.d. for four days.

On to `C[N+](C)(C)Cc1cc(Cl)c(N=C2NCCN2)c(Cl)c1` [Example 6, 2-(2,6-Dichloro-4-trimethylammoniomethylphenylimino)-imidazolidine bromide Hydrobromide.], for which, under setting [1], the “% Mortality” value stood at 71% and the “No of mice dead after 10 days” value is given as 52. Also, under setting [2], the “% Protection by drug” value is listed as 15%.

Regarding `CC[N+](CC)(CC)Cc1cc(Cl)c(N=C2NCCN2)c(Cl)c1` [Example I, 2,(2,6-Dichloro-4-triethylammoniomethylphenylimino)-imidazolidine bromide], the “% Mortality” value is, setting by setting: under setting [1], 32%; (drug 50mg/kg b.i.d. for four days commencing 16 hours after infection) 29%. Also, the “No of mice dead after 10 days” value is 22 under setting [1] and 20 (drug 50mg/kg b.i.d. for four days commencing 16 hours after infection, 68 mice infected). For the same compound, the “% Protection by drug” value is reported as 40* % under setting [2] and 46* % (drug 50mg/kg b.i.d. for four days).
